Measured values published in ChEMBL document CHEMBL1152642, “Semisynthetic latrunculin B analogs: studies of actin docking support a proposed mechanism for latrunculin bioactivity” (Bioorg Med Chem, 2009).
Active and inactive are the calls of the source. The rule behind the calls is not given here.

Legend:
Type in all cases: functional, organism-based
Saccharomyces cerevisiae = assay: Antimicrobial activity against Saccharomyces cerevisiae NRRL Y2034 by twofold dilution method
Candida albicans = assay: Antimicrobial activity against Candida albicans by twofold dilution method
Aspergillus flavus = assay: Antimicrobial activity against Aspergillus flavus NRRL 501 by twofold dilution method

Structure (SMILES) | Activity (Saccharomyces cerevisiae) | Activity (Candida albicans) | Activity (Aspergillus flavus)
CCCCCCCCN1C(=O)SC[C@H]1[C@@]1(OC)C[C@H]2C[C@@H](CC[C@H](C)/C=C\CC/C(C)=C\C(=O)O2)O1 | inactive | inactive | inactive
CO[C@]1([C@@H]2CSC(=O)N2)C[C@H]2C[C@@H](CC[C@H](C)/C=C\CC/C(C)=C\C(=O)O2)O1 | inactive | inactive | inactive
C/C1=C/C(=O)O[C@@H]2C[C@@H](CC[C@H](C)/C=C\C=C\CC1)O[C@@](O)([C@@H]1CSC(=O)N1)C2 | Active | Active | Active
C/C1=C/C(=O)O[C@@H]2CC(CC[C@H](C)/C=C\C=C\CC1)O[C@@](O)([C@H]1CSC(=O)N1)C2 | Active | Active | Active
CCCCCCCCCCN1C(=O)SC[C@H]1[C@@]1(OC)C[C@H]2C[C@@H](CC[C@H](C)/C=C\CC/C(C)=C\C(=O)O2)O1 | inactive | inactive | inactive
CO[C@]1([C@@H]2CSC(=O)N2C)C[C@H]2C[C@@H](CC[C@H](C)/C=C\CC/C(C)=C\C(=O)O2)O1 | inactive | inactive | inactive
CCCCCCCCCN1C(=O)SC[C@H]1[C@@]1(OC)C[C@H]2C[C@@H](CC[C@H](C)/C=C\CC/C(C)=C\C(=O)O2)O1 | inactive | inactive | inactive
CCCCCCCCCCN1C(=O)SC[C@H]1[C@@]1(O)C[C@H]2C[C@@H](CC[C@H](C)/C=C\CC/C(C)=C\C(=O)O2)O1 | inactive | inactive | inactive
C/C1=C/C(=O)O[C@@H]2C[C@@H](CC[C@H](C)/C=C\CC1)O[C@@](O)([C@H]1CSC(=O)N1)C2 | Active | Active | Active
CCCCCCN1C(=O)SC[C@H]1[C@@]1(OC)C[C@H]2C[C@@H](CC[C@H](C)/C=C\CC/C(C)=C\C(=O)O2)O1 | inactive | inactive | inactive
CCCCCN1C(=O)SC[C@H]1[C@@]1(OC)C[C@H]2C[C@@H](CC[C@H](C)/C=C\CC/C(C)=C\C(=O)O2)O1 | inactive | inactive | inactive
C/C1=C/C(=O)O[C@@H]2C[C@@H](CC[C@H](C)/C=C\CC1)O[C@@](O)([C@@H]1CSC(=O)N1)C2 | Active | Active | Active
